Measured values from ChEMBL document CHEMBL1138338, “Design, synthesis, and structure-activity relationships of a novel series of 5-alkylidenepyridazin-3(2H)-ones with a non-cAMP-based antiplatelet activity” (J Med Chem, 2007).
Calls of active or inactive are those of the source. The rule behind the calls is not given here.

System: not listed separately
Assay: (§1) Inhibition of thrombin-induced platelet aggregation in human platelets after 5 mins by turbidimetric method
Type: functional, cell-based

IC50	Compound
8.7 µM	CCOC(=O)C(=Cc1cn[nH]c(=O)c1)C(=O)OCC
3.58 µM	O=C(OCc1ccccc1)C(=Cc1cn[nH]c(=O)c1)C(=O)OCc1ccccc1
509 µM	O=C1C(CC[S+]([O-])c2ccccc2)C(=O)N(c2ccccc2)N1c1ccccc1 (configuration not stated) [SULFINPYRAZONE]
6.25 µM	CC(C)(C)OC(=O)C(=Cc1cnn(Cc2ccccc2)c(=O)c1)C(=O)OC(C)(C)C
142 µM	O=C(/C=C/c1cc(=O)[nH]nc1-c1ccccc1)c1ccccc1
40.2 µM	COC(=O)C(=Cc1cn[nH]c(=O)c1)C(=O)OC
1.8 µM	O=C(OCc1ccccc1)C(=Cc1cc(=O)[nH]nc1-c1ccccc1)C(=O)OCc1ccccc1
3.62 µM	CCOC(=O)C(=Cc1cnn(Cc2ccccc2)c(=O)c1)C(=O)OCC
126 µM	N#CC(C#N)=Cc1cnn(Cc2ccccc2)c(=O)c1
1.36 µM	O=C(OCc1ccccc1)C(=Cc1cnn(Cc2ccccc2)c(=O)c1)C(=O)OCc1ccccc1
9.2 µM	COC(=O)C(=Cc1cc(=O)n(C)nc1-c1ccccc1)C(=O)OC
17.5 µM	CC(C)OC(=O)C(=Cc1cc(=O)[nH]nc1-c1ccccc1)C(=O)OC(C)C
4.1 µM	CC(C)OC(=O)C(=Cc1cc(=O)n(C)nc1-c1ccccc1)C(=O)OC(C)C
13.3 µM	CC(C)OC(=O)C(=Cc1cnn(C)c(=O)c1)C(=O)OC(C)C
17 µM	CCOC(=O)C(=Cc1cc(=O)n(C)nc1-c1ccccc1)C(=O)OCC
4.7 µM	Cc1[nH]c(=O)c(C#N)cc1-c1ccncc1 [MILRINONE]
20 µM	CCOC(=O)C(=Cc1cc(=O)[nH]nc1-c1ccccc1)C(=O)OCC
4.86 µM	COC(=O)C(=Cc1cnn(Cc2ccccc2)c(=O)c1)C(=O)OC
12.3 µM	CCOC(=O)C(=Cc1cnn(C)c(=O)c1)C(=O)OCC
7.5 µM	CC(C)(C)OC(=O)C(=Cc1cc(=O)[nH]nc1-c1ccccc1)C(=O)OC(C)(C)C
170 µM	O=C(/C=C/c1cnn(Cc2ccccc2)c(=O)c1)c1ccccc1
221 µM	N#C/C=C/c1cnn(Cc2ccccc2)c(=O)c1
2.9 µM	CC(C)OC(=O)C(=Cc1cnn(Cc2ccccc2)c(=O)c1)C(=O)OC(C)C
45 µM	COC(=O)C(=Cc1cc(=O)[nH]nc1-c1ccccc1)C(=O)OC
45 µM	Cn1nc(-c2ccccc2)c(C=C(C(=O)OC(C)(C)C)C(=O)OC(C)(C)C)cc1=O
1.4 µM	Cn1nc(-c2ccccc2)c(C=C(C(=O)OCc2ccccc2)C(=O)OCc2ccccc2)cc1=O
15.6 µM	COC(=O)C(=Cc1cnn(C)c(=O)c1)C(=O)OC
95 µM	Cn1ncc(C=C(C(=O)OC(C)(C)C)C(=O)OC(C)(C)C)cc1=O
1.64 µM	Cn1ncc(C=C(C(=O)OCc2ccccc2)C(=O)OCc2ccccc2)cc1=O

Compound	IC50
Cn1ncc(C=C(C#N)C#N)cc1=O	475 µM

System: Platelet
Assay: as §1
Type: functional, cell-based

Compound	Activity
COCn1nc(-c2ccccc2)c(/C=C/C(=O)OC)cc1=O	inactive
O=C(OCc1ccccc1)C(=Cc1cnn(Cc2ccccc2)c(=O)c1)C(=O)OCc1ccccc1	Dose-dependent effect
CC(C)OC(=O)C(=Cc1cc(=O)[nH]nc1-c1ccccc1)C(=O)OC(C)C	Dose-dependent effect
COC(=O)C(=Cc1cc(=O)[nH]nc1-c1ccccc1)C(=O)OC	Dose-dependent effect

System: not listed separately
Assay: Inhibition of PDE3 in guinea pig ventricle
Set-up: species or system Cavia porcellus

IC50	Compound
2000 µM	COC(=O)C(=Cc1cc(=O)n(C)nc1-c1ccccc1)C(=O)OC
2000 µM	CCOC(=O)C(=Cc1cc(=O)[nH]nc1-c1ccccc1)C(=O)OCC
2000 µM	COC(=O)C(=Cc1cc(=O)[nH]nc1-c1ccccc1)C(=O)OC
